# Assay results as given in patent publication US8962322B2, “Enhancers of induced pluripotent stem cell reprogramming” (City of Hope, priority 2012, dated 2015).
# Columns and labels:
# [1] = tested on: Tet1; test: RT-PCR of Tet1 mRNA in treated MEFs; type: cell-based, mouse; conditions: versus vehicle
# Description: The up-regulation of Tet1 is intriguing, as this is a gene that converts 5-methylcytosine to 5-hydroxymethylcytosine and may be involved in active DNA demethylation.
# RT-PCR analysis: Total RNA was purified with Trizol reagent (Invitrogen). Reverse transcription was performed with 1 μg of RNA using Omniscript® Reverse Transcription Kit (Qiagen). Quantitative PCR was performed using iTaq SYBR Green Supermix with Rox (Bio-rad) in Applied Biosystem Step one plus real-time PCR system. […]
# [2] = tested on: OCT4 promoter; test: Bisulfite genomic sequencing of OCT4 promoter in IMR90 fibroblasts; type: cell-based, human; conditions: IMR90 fibroblasts treated for two days
# Description: To uncover the mechanism of OAC 1-mediated improvement of reprogramming efficiency, it was tested whether OAC 1 functions through regulation of DNA methylation status on the endogenous Oct4 promoter. Human IMR90 fibroblast cells were treated with OAC1 or vehicle control for two days.
# Bisulfite Genomic Sequencing: Genomic DNA was isolated from human IMR90 fibroblasts, MEFs, mouse ESCs, 4F+OAC1 and 4F+OAC2-iPSCs by digestion with proteinase K, followed by phenolchloroform extraction and ethanol precipitation. Bisulfite conversion of genomic DNAs was carried out using the EZ DNA Methylation-Gold kit (Zymo Research) according to manufacturer's instruction. The bisulfite-modified DNA was then used as a template for PCR to amplify the promoter regions of Oct4 and Nanog using PCR primers for human OCT4 (1), mouse Oct4 (52) and Nanog (2). The amplified products were cloned into the pCR2.1-TOPO cloning vector (Invitrogen), and 10 randomly selected clones were sequenced with T7 or M13R primers.
# [3] = tested on: human fibroblast cells (IMR90); test: human iPSC derivation from 4F (OSKM)-transduced IMR90 fibroblasts; type: cell-based
# Description: It has been shown that compound OAC1 (Oct4-activating compound I) and two of its structural analogs OAC2 and OAC3 can enhance reprogramming efficiency, when added to the reprogramming mixture along with the four transcription factors, Oct4, Sox2, Klf4, and c-Myc (OSKM), in mouse system. The OAC compounds were tested to determine if they can enhance reprogramming efficiency in human system. The reprogramming process was performed as described in the diagram (FIG. 14a). Briefly, human fibroblast cells (IMR90) were induced to reprogram into induced pluripotent stem cells (iPSCs) using the four reprogramming factors (4F), OSKM. The day when the cells were transduced with the four reprogramming factors was referred to as day 0. Cells were cultured in IMR90 media for six days. On day 6, the transduced cells were split and seeded onto feeders. On day 7, IMR90 culture media was changed to hESC culture media and started compound treatment. Compound treatment was lasted for one week. Cells were monitored for the appearance of human embryonic stem cell (ESC)-like colonies. On day 9, several small human ESC-like colonies appeared in both 4F+OAC1 and 4F+OAC2-treated cells, however, human ESC-like colonies were not observed in 4F+vehicle (4F)-treated cells until day 11. To determine the effect of OAC on the efficiency of human iPSC derivation, the number of human ESC-like colonies were counted under all three conditions at day 18. Both OAC 1 and its structural analog OAC2 increased the number of human ESC-like colonies more than two-fold (FIG. 14b, c). The human ESC-like colonies were picked from either 4F or 4F+OAC-treated cells and expanded under human ESC culture conditions. These cells were able to expand and stably produce human iPSC clones with characteristic human ESC-like morphology (FIG. 14d).
structure (smiles),measurement,setting,value
"O=C(Nc1cc2cc[nH]c2cn1)c1ccccc1 [OAC1, N-(1H-6-azaindol-5-yl)benzamide]",Tet1 mRNA expression,[1],up-regulated
same,OCT4 promoter methylation status versus DMSO,[2],no significant difference
same,day at which human ESC-like colonies appeared,"[3]; IMR90, 4F+compound, day 0 = transduction, 4F+vehicle day 11",9 days
same,increase in the number of human ESC-like colonies,"[3]; IMR90, day 18, versus 4F",more than two
